Data on one compound can be found in patent publication US7405181B2, “Bio-fertilizer composition for promoting growth or orchid plants and application” (National Taiwan University, priority 2005, dated 2008).

Assay [1] concerns Doritaenopsis casablanca Joy × Phalaenopsis taida Pinlong. Put plainly: Flowering rates with bio-fertilizer and plant growth substance. The format is in vivo. The settings on record: room temperature. On the procedure: (§1) Phalaenopsis amabili and Doritaenopsis casablanca Joy×Phalaenopsis taida Pinlong are treated with either bio-fertilizer composition Mb or plant growth regulators Gibberellic Acid (GA3), or both. The flowering rates are observed after incubation.

Another assay concerns Phalaenopsis amabilis. The description is as above. The note with it: room temperature. Format: in vivo. The procedure:
as §1

On to `C=C1C[C@]23C[C@@]1(O)CC[C@H]2[C@@]12C=C[C@H](O)[C@@](C)(C(=O)O1)[C@H]2[C@@H]3C(=O)O` [NM + GA3, Gibberellic Acid], for which the flowering rate in assay [1] is 71%; with Phalaenopsis amabilis, 75%.
